Publication PMC12812009, “Optimization of 4‐Amino‐2‐Pyridone Inhibitors of Proprotein Convertase Subtilisin/Kexin Type 9: Integrating Structure–Activity and Structure–Metabolism Relationships” (Chemmedchem, 2025)
Like-named read-outs stand apart in the source and are kept apart here.

Tests used:
[1] = tested on: secreted PCSK9; assay: PCSK9 secretion in culture medium, ELISA on HepG2 supernatants; type: cell-based, human
Description: Next, the levels of secreted PCSK9 were quantified by ELISA assay (Figure 5) only on supernatants collected from cells treated with noncytotoxic concentrations of each compound, as reported in Table 1. Simvastatin (Simva) at 20 and 40 μM and berberine (BBR) at 10 μM were included as controls. As described in the literature, simvastatin induces PCSK9 expression as a compensatory mechanism in response to its cholesterol‐lowering effects, being a pharmacological competitor for HMG‐CoA reductase, the rate‐limiting enzyme of the cholesterol biosynthetic pathway.^[ [29] ^] In contrast, BBR, a natural compound, reduces the expression of PCSK9 levels through transcriptional inhibition, thus increasing the LDLR availability on plasma membrane.^[ [30] ^] As additional and distinct mechanism to the latter, BBR is also able to stabilize the transcript of LDLR, thus increasing its half‐life.^[ [31] ^] As expected, cells stimulated with simvastatin released more PCSK9 into the culture medium compared to unstimulated cells, with a statistically significant concentration‐dependent effect (+73% at 20 μM, p < 0.01; +200% at 40 μM, p < 0.0001), while BBR at 10 μM decreased PCSK9 levels in the medium more than 50% (p < 0.0001 vs. basal) (Figure 5).^[ [32] ^] The amount of PCSK9 secreted into the culture media was measured with an appropriate ELISA kit (R&D System, DY3888 and DY008B2) on the supernatants collected during the MTT assay. Every experimental condition was run in duplicate and the average PCSK9 secretion and standard deviation was calculated. A 4PL regression analysis was used to interpolate unknowns with the standard curve using GraphPad Prism v10.2, according to manufacturers’ instructions. The data were normalized onto the corresponding cell viability, and IC50 was then calculated using GraphPad Prism v10.2.

[2] = tested on: HepG2 cell cultures; assay: MTT cell viability assay in HepG2 cell cultures; type: cell-based, human; details: 0.5-50.0 μM, HepG2, MTT, 24 h
Description: (§1) The approach we set‐up to test the new PCSK9i was based on functional assay, which evaluated at the same time compounds cytotoxicity, and their effect on the secreted PCSK9 on the same cell line. First, cell viability was evaluated in HepG2 cell cultures using the MTT assay (CC50 values are reported in Table 1 and Figure 5 ) after 24 h of incubation in starving conditions (0.4% fetal bovine serum (FBS)). The low FBS concentration, and thus low extracellular lipoproteins, stimulates the sterol responsive element binding protein (SREBP) pathway, inducing the expression of LDLR, PCSK9, HMG‐CoA reductase,^[ [28] ^] thus increasing the uptake of exogenous cholesterol and enhancing the synthesis of endogenous cholesterol. This first step allowed us to calculate the CC50 and identify the noncytotoxic concentrations (viability higher than 90%; Table 1), then tested for PCSK9 inhibitory activity.
(§2) Cell viability was assessed using the MTT assay. Cells were seeded in 96‐well plates (2.5 × 10^4 cells/well) in MEM supplemented with 10% v/v FBS and incubated for 24 h. The cells were then treated with the synthesized compounds dissolved in DMSO at increasing concentrations (from 0.5 to 50 µM) in MEM supplemented with 0.4% v/v FBS for 24 h. Simvastatin [20 and 40 µM] and BBR [10 µM] (both from Merck, St. Louis, Missouri, USA) were used as internal controls as PCSK9 inducer and inhibitor, respectively.^[ [21] ^, [34] ^, [35] ^] The cells were then incubated for 2 h with a solution of MTT [1 mg mL^–1] in MEM supplemented with 0.4% v/v FBS, away from light sources. The supernatant was then collected and 200 µL of DMSO was added to each well to solubilize the newly formed formazan. Finally, an aliquot of 100 µL was taken to measure the absorbance at a wavelength of 570 nm using an absorbance microplate reader (Spark Tecan, Switzerland). Every experimental condition was run in duplicate and the average cell viability and standard deviation was calculated. Cell viability was expressed as the percentage of treated cells compared to untreated (basal) cells. CC50 values for each compound were calculated by interpolating the percentage of cell viability through nonlinear regression analysis of the log (inhibition) versus response using GraphPad Prism software version 8.0 (GraphPad Software Inc., La Jolla, CA).

[3] = MTT cell viability assay in HepG2 cell cultures; type: cell-based, human; details: human, HepG2 cells, MTT
Description: as §1, §2

[4] = In vitro metabolic stability with mouse liver microsomes; type: in vitro ADME; details: for metabolic stability (in words): MLM + NADPH-generating system; for metabolic stability (in words) / metabolic stability, percentage of intact compound recovered relative to control: 60 min; for metabolic stability, percentage of intact compound recovered relative to control: MLM 1 mg/ml + NADPH-generating system, 10 µM, HPLC
Description: All newly synthesized LSF derivatives of 5c were biologically evaluated to determine whether the introduced modifications influenced both metabolic stability and anti‐PCSK9 activity. Microsomal stability assays were conducted to assess the impact of LSF modifications on improving the stability of 5c. In these assays, LSF derivatives were incubated with mouse liver microsomes (MLM) and an NADPH‐generating system for 60 min, followed by HPLC analysis. Control samples included compounds and liver microsomes without the NADPH system, allowing for the assessment of nonspecific binding to microsomes. […] Acylated derivatives 12, 13, and 14 achieved stability levels exceeding 95%, as did the bicyclic derivative 7, which exemplifies a dual‐site functionalization.
MLM (pooled male) were obtained from Xenotech, LLC (Cambridge, Kansas City, USA). Glucose‐6‐phosphate (G6P), oxidized nicotinamide‐adenine‐dinucleotide phosphate (NADP^+), magnesium chloride (MgCl2), and glucose‐6‐phosphate‐dehydrogenase (G6PDH) were supplied by Sigma‐Aldrich (Milan, Italy). Metabolic stability assays were modified from Ferlenghi et al.^[ [33] ^] Briefly, samples were prepared in 100 mM phosphate buffered saline (PBS), pH 7.4, containing 1 mg ml^–1 MLM and a NADPH‐generating system (5 mM MgCl2, 10 mM glucose‐6‐phosphate, 2 mM NADP^+, 1.5 U ml^–1 of glucose‐6‐phosphate dehydrogenase). After incubation (37 °C, 5 min stirring), compounds stock solutions in DMSO were added to a final concentration of 10 µM. The final DMSO percentage in samples was kept at 0.5%. After 60 min, single aliquots of reaction mixture were withdrawn, added of two volumes of acetonitrile, centrifuged (10,000 g, 10 min) and the supernatant was analyzed by HPLC. The unspecific binding to MLM was evaluated by means of control samples in which the compounds were incubated in the absence of a NADPH generating system. The apparatus used for HPLC analysis was a Shimadzu instrument, with a reverse‐phase Nova‐Pak column (Waters) (C18 4 μm 3.9 × 150 mm, Waters). The mobile phase, pumped at a flow rate of 1.2 ml min^–1, consisted of water and acetonitrile in either a 50:50 (v/v) ratio (compounds 5c, 6a, 6b, 6c, 7, 8, 12, 13, 14, 17b) or a 40:60 (v/v) ratio (compounds 11 and 15) or a 30:70 (v/v) ratio (for compounds 17a, 18a, 18b). For compounds 9 and 10, a phosphate buffer (5.98 g L^–1 Na2HPO4, 0.19 g L^–1 KH2PO4, adjusted to pH 7.4 with 85% H3PO4 and supplemented with 1.4 mL L^–1 triethylamine; final pH: 8) and acetonitrile (50:50, v/v) were pumped at a flow rate of 2 mL min^–1. In all cases, column temperature was 35 °C, injection volume was 50 µl, and absorbance was monitored at 254 nm. Serial dilutions for the calibration curves were prepared in the interval 0.5–20 µM in either PBS:CH3CN or H2O:CH3CN mixture (50:50, v/v) for compounds 5c, 6a, 6b, 8, 9, 10, 11, 12, 13, 14, 15, 17a, 17b, 18a, 18b, and in acetonitrile for compounds 6c and 7.

[5] = Homo sapiens, HepG2, 24 h, read-out: secreted PCSK9 change vs. basal
[6] = Homo sapiens, HepG2, 24 h, ELISA on supernatants, normalized to viability, Figures 5 and 8 and text, read-out: IC50 (anti-PCSK9 activity, PCSK9 secretion)
[7] = printed in Figures 5 and 8, HepG2, 24 h, read-out: CC50
[8] = 24 h incubation, HepG2, 0.4% FBS, 0.5-50.0 μM, read-out: CC50 (CI 95%)
[9] = HepG2, 24 h, non-cytotoxic concentrations
[10] = Homo sapiens, HepG2, Table S2, ELISA, non-cytotoxic concentrations, read-out: IC50 ± SD on PCSK9 secreted by HepG2

metabolic stability, percentage of intact compound recovered relative to control [4]	Compound	inhibition at 50 µM [1, 5]	IC50 [1, 6]	cytotoxicity (in words) [2]	CC50 at 24 h [3, 7]	metabolic stability (in words) [4]	metabolic stability/PCSK9 IC50 ratio (in words) ([4]; with respect to 5c)	inhibition at 0.5 µM ([1]; Homo sapiens, 0.5 μM, HepG2, 24 h, read-out: secreted PCSK9 change vs. basal)	CC50 at 24 h [3, 8]	effect on PCSK9 secretion (in words) [1, 9]	IC50 [1, 10]	inhibition at 25 µM ([1]; Homo sapiens, 25 μM, HepG2, 24 h, read-out: secreted PCSK9 change vs. basal)
–	Cc1cc(OCc2cccc(F)c2)c(Cc2cccc(F)c2)c(=O)n1Cc1ccc(Cl)cc1 [Compound 18b, 1‐(4‐Chlorobenzyl)‐3‐(3‐Fluorobenzyl)‐4‐((3‐Fluorobenzyl)Oxy)‐6‐Methylpyridin‐2(1H)‐One]	81%	3.3 µM	nontoxic at all the concentrations tested	> 50 µM	did not show any improvement in metabolic stability compared to 5c	–	–	–	–	–	–
exceeding 95%	Cc1cc(OCc2ccc(C(F)(F)F)cc2)c(Cc2ccc(C(F)(F)F)cc2)c(=O)n1Cc1ccc(C(F)(F)F)cc1 [Compound 18a, 6‐Methyl‐1,3‐Bis(4‐(Trifluoromethyl)Benzyl)‐4‐((4‐(Trifluoromethyl)Benzyl)Oxy)pyridin‐2(1H)‐One]	80%	2.1 µM	nontoxic at all the concentrations tested	> 50 µM	–	higher metabolic stability/PCSK9 IC50 ratio	–	–	–	–	–
–	Cc1cc(NCc2ccc(C(F)(F)F)cc2)c(I)c(=O)n1Cc1ccc(C(F)(F)F)cc1 [Compound 6c, 3‐Iodo‐6‐Methyl‐1‐(4‐(Trifluoromethyl)Benzyl)‐4‐((4‐(Trifluoromethyl)Benzyl)Amino)pyridin‐2(1H)‐One]	–	–	–	–	did not improve compared to the parent compound 5c	–	20%	46.9 µM	–	–	–
exceeding 95%	CC(=O)N(Cc1ccc(C(F)(F)F)cc1)c1cc(C)n(Cc2ccc(C(F)(F)F)cc2)c(=O)c1 [Compound 12, N‐(6‐Methyl‐2‐Oxo‐1‐(4‐(Trifluoromethyl)Benzyl)‐1,2‐Dihydropyridin‐4‐yl)‐N‐(4‐(Trifluoromethyl)Benzyl)Acetamide]	–	–	–	–	–	–	–	43 µM	did not inhibit PCSK9 in a dose‐dependent manner	13.6 ± 2.67 µM	75%
–	Cc1cc2c(c(=O)n1Cc1ccc(C(F)(F)F)cc1)CCC(=O)N2Cc1ccc(C(F)(F)F)cc1 [Compound 11, 7‐Methyl‐1,6‐Bis(4‐(Trifluoromethyl)Benzyl)‐4,6‐Dihydro‐1,6‐Naphthyridine‐2,5(1H,3H)‐Dione]	–	–	–	–	modest yet notable improvement in stability	–	–	28 µM	moderate but significant inhibition of PCSK9 secretion	10.2 ± 2.81 µM	–
